The values that follow come from ChEMBL document CHEMBL4145492, “Discovery of biphenyl-substituted diarylpyrimidines as non-nucleoside reverse transcriptase inhibitors with high potency against wild-type and mutant HIV-1” (Eur J Med Chem, 2018).

In series [1] the test system is Human immunodeficiency virus 2. Nature of the series: Antiviral activity against HIV2 ROD infected in human MT4 cells assessed as reduction of virus-induced cytopathic effect after 4 days by MTT assay. It is filed as functional, organism-based. Conditions: Human immunodeficiency virus 2, ISOLATE ROD, MT4, 96 h.
The target in series [2] is Human immunodeficiency virus type 1 reverse transcriptase (Human immunodeficiency virus 1, UniProt Q72547). Put plainly: Inhibition of recombinant wild type HIV1 reverse transcriptase p66/p51 using poly (rA)/anoligo (dT)16 as template/primer assessed as inhibition of biotin-dUTP incorporation after 40 mins by Pico-Green staining based fluorescence assay.
The nature of series [3]: Cytotoxicity against human MT4 cells assessed as reduction in cell viability after 4 days by MTT assay. The series is classed as cell-based.
Series [4] deals with Human immunodeficiency virus 1. Put plainly: Antiviral activity against wild type HIV1 3B infected in human MT4 cells assessed as reduction of virus-induced cytopathic effect after 4 days by MTT assay. It is filed as functional, organism-based. The following applies: Human immunodeficiency virus 1, 3B, MT4, 96 h. In general terms: Damage to the host cells serves as the signal in cytopathic effect assays.

Series [5] in a line: Selectivity index, ratio of CC50 for human MT4 cells to EC50 for wild type HIV1 3B. The series is classed as toxicity. Conditions: read-out: Ratio CC50/EC50.
Series [6] concerns Human immunodeficiency virus 1. Nature of the series: Antiviral activity against HIV1 harboring reverse transcriptase L100I mutant infected in human MT4 cells assessed as reduction of virus-induced cytopathic effect after 4 days by MTT assay. It is filed as functional, organism-based. The following applies: Human immunodeficiency virus 1, MT4, 96 h.
Series [7] relates to Human immunodeficiency virus 1. Nature of the series: Antiviral activity against HIV1 harboring reverse transcriptase F227L/V106A double mutant infected in human MT4 cells assessed as reduction of virus-induced cytopathic effect after 4 days by MTT assay. The series is classed as functional, organism-based. The following applies: Human immunodeficiency virus 1, MT4, 96 h.
Series [8] has as its system Human immunodeficiency virus 1. Nature of the series: Antiviral activity against HIV1 harboring reverse transcriptase Y181C mutant infected in human MT4 cells assessed as reduction of virus-induced cytopathic effect after 4 days by MTT assay. The series is classed as functional, organism-based. Conditions: Human immunodeficiency virus 1, MT4, 96 h.
Series [9] has as its system Human immunodeficiency virus 1. Nature of the series: Antiviral activity against HIV1 harboring reverse transcriptase E138K mutant infected in human MT4 cells assessed as reduction of virus-induced cytopathic effect after 4 days by MTT assay. The series is classed as functional, organism-based. The following applies: Human immunodeficiency virus 1, MT4, 96 h.
In series [10] the test system is Human immunodeficiency virus 1. Put plainly: Antiviral activity against HIV1 harboring reverse transcriptase Y188L mutant infected in human MT4 cells assessed as reduction of virus-induced cytopathic effect after 4 days by MTT assay. Conditions: Human immunodeficiency virus 1, MT4, 96 h. The series is classed as functional, organism-based.
Series [11] concerns Human immunodeficiency virus 1. Nature of the series: Antiviral activity against HIV1 RES056 harboring reverse transcriptase K103 N/Y181C double mutant infected in human MT4 cells assessed as reduction of virus-induced cytopathic effect after 4 days by MTT assay. The series is classed as functional, organism-based. The following applies: Human immunodeficiency virus 1, RES056, MT4, 96 h.

The test system of series [12] is Human immunodeficiency virus 1. Put plainly: Antiviral activity against HIV1 harboring reverse transcriptase K103N mutant infected in human MT4 cells assessed as reduction of virus-induced cytopathic effect after 4 days by MTT assay. The following applies: Human immunodeficiency virus 1, MT4, 96 h. The series is classed as functional, organism-based.

The EC50 is the concentration that produces a half-maximal response. By IC50 is commonly meant the concentration that gives 50% inhibition. As a reminder, the CC50 is the concentration at which the toxic effect on the cells reaches its halfway point. Consider `Cc1cc(-c2cc(Cl)cc(Cl)c2)cc(C)c1Nc1ccnc(Nc2ccc(C#N)cc2)n1`, for which the EC50 in [1] is greater than 4.29 µM; in series [4], 0.034 µM. The IC50 in series [2] turned out to be 0.046 µM. Further, the CC50 at 96 h in series [3] came out at 4.29 µM. In addition, the selectivity ratio in series [5] came to 125.

As for `Cc1cc(-c2ccc(C#N)cc2)cc(C)c1Nc1ccnc(Nc2ccc(C#N)cc2)n1`, the EC50 in series [6] is 0.0013 µM; in [7] it was no less than 0.11 µM; in series [8] it was 0.0015 µM; in series [9], 0.002 µM; in series [1] it was greater than 2.08 µM; in [10], 0.011 µM. Moreover, the EC50 in series [11] was determined as 0.01 µM; in [4] it was 0.001 µM; in series [12], 0.00084 µM. For the same molecule, in series [2], the IC50 is 0.014 µM. The selectivity ratio in [5] is 2060.

As to `Cc1cc(C)cc(-c2cc(C)c(Nc3ccnc(Nc4ccc(C#N)cc4)n3)c(C)c2)c1`, the EC50 in series [1] is greater than 4.14 µM; in [4], 0.023 µM. For the same molecule, in [2], the IC50 was 0.116 µM. For the same molecule, the CC50 at 96 h in [3] amounted to 4.14 µM. Further, the selectivity ratio in [5] worked out at 177.

`Cc1cc(-c2ccccc2C(F)(F)F)cc(C)c1Nc1ccnc(Nc2ccc(C#N)cc2)n1`: the EC50 in series [1] was greater than 4.21 µM; in series [4] it was 0.0069 µM. For the same molecule, the IC50 in series [2] was found to be 0.046 µM. Besides, the CC50 at 96 h in series [3] came out at 4.21 µM. Besides, the selectivity ratio in series [5] was determined as 606.

Turning to `Cc1ccc(-c2cc(C)c(Nc3ccnc(Nc4ccc(C#N)cc4)n3)c(C)c2)cc1`, the EC50 in series [1] was greater than 5.57 µM; in series [4], 0.0036 µM. Besides, the IC50 in series [2] came to 0.019 µM. In addition, the 50% cytotoxic concentration (CC50) at 96 h in series [3] came to 5.57 µM. Further, the selectivity ratio in series [5] amounted to 1540.

Take `Cc1cc(-c2cccc(F)c2)cc(C)c1Nc1ccnc(Nc2ccc(C#N)cc2)n1`: the concentration giving a half-maximal response (EC50) in series [1] is greater than 4.12 µM; in series [4], 0.0017 µM. Further, the IC50 in series [2] worked out at 0.012 µM. In series [3], the CC50 at 96 h was determined as 4.12 µM. For the same molecule, in series [5], the selectivity ratio was found to be 2380.

Take `COc1cccc(-c2cc(C)c(Nc3ccnc(Nc4ccc(C#N)cc4)n3)c(C)c2)c1`: the EC50 in series [1] was greater than 2.99 µM; in [4] it was 0.0029 µM. The IC50 in [2] was found to be 0.027 µM. The CC50 at 96 h in series [3] came out at 2.99 µM. The selectivity ratio in [5] was 1050.

Take `O=C1Nc2ccc(Cl)cc2[C@@](C#CC2CC2)(C(F)(F)F)O1` [EFAVIRENZ]: the EC50 in series [6] came out at 0.001 µM; in [7], 0.05 µM; in [8], 0.0015 µM; in series [9] it was 0.0016 µM; in series [10], 0.059 µM; in series [11], 0.04 µM. For the same molecule, the results for the half-maximal effective concentration (EC50) in [4] and in [12] were 0.00043 µM and 0.019 µM, respectively. In series [3], the CC50 at 96 h was greater than 2 µM.

For `Cc1ccccc1-c1cc(C)c(Nc2ccnc(Nc3ccc(C#N)cc3)n2)c(C)c1`, the EC50 in series [1] was greater than 3.82 µM; in [4], 0.0024 µM. Further, in [2], the IC50 amounted to 0.018 µM. The CC50 at 96 h in series [3] was 3.82 µM. Further, the selectivity ratio in series [5] is 1580.

As to `COc1ccccc1-c1cc(C)c(Nc2ccnc(Nc3ccc(C#N)cc3)n2)c(C)c1`, the values for the EC50 in [1] and in series [4] were greater than 0.94 µM and 0.003 µM, respectively. The IC50 in series [2] came out at 0.021 µM. The CC50 at 96 h in [3] was determined as 0.94 µM. Further, the selectivity ratio in series [5] came to 316.

As to `Cc1cc(-c2cccc(Cl)c2)cc(C)c1Nc1ccnc(Nc2ccc(C#N)cc2)n1`, the EC50 in [1] is greater than 2.16 µM; in series [4] it was 0.0053 µM. The IC50 in series [2] stood at 0.02 µM. Further, the CC50 at 96 h in series [3] was determined as 2.16 µM. The selectivity ratio in [5] came out at 409.

Take `Cc1cc(-c2cc(F)cc(F)c2)cc(C)c1Nc1ccnc(Nc2ccc(C#N)cc2)n1`: the EC50 was greater than 3.91 µM in series [1] and 0.033 µM in series [4]. Further, the IC50 in series [2] was 0.052 µM. The CC50 at 96 h in series [3] was 3.91 µM. Further, the selectivity ratio in series [5] turned out to be 120.

Consider `Cc1cc(C#N)cc(C)c1Oc1nc(Nc2ccc(C#N)cc2)nc(N)c1Br` [ETRAVIRINE], for which the EC50 in series [6] amounted to 0.0027 µM; in [7], 0.007 µM; in series [8], 0.0081 µM; in [9], 0.0073 µM; in series [10] it was 0.0079 µM; in series [11], 0.01 µM. In addition, the 50% effective concentration (EC50) in [4] and in [12] was 0.0015 µM throughout. Moreover, the CC50 at 96 h in [3] is greater than 2 µM. Further, in series [5], the selectivity ratio is greater than 1320.

`Cc1cc(-c2ccc(Cl)cc2)cc(C)c1Nc1ccnc(Nc2ccc(C#N)cc2)n1`: the EC50 in series [1] was greater than 4.19 µM; in [4], 0.0037 µM. The IC50 in series [2] stood at 0.026 µM. Further, in [3], the CC50 at 96 h was found to be 4.19 µM. Also, the selectivity ratio in [5] came out at 1130.

As to `COc1ccc(-c2cc(C)c(Nc3ccnc(Nc4ccc(C#N)cc4)n3)c(C)c2)cc1`, the results for the EC50 in series [1] and in [4] were greater than 2.89 µM and 0.0024 µM, respectively. For the same molecule, the half-maximal inhibitory concentration (IC50) in [2] turned out to be 0.027 µM. Further, the CC50 at 96 h in [3] worked out at 2.89 µM. The selectivity ratio in [5] was 1200.

As for `Cc1cccc(-c2cc(C)c(Nc3ccnc(Nc4ccc(C#N)cc4)n3)c(C)c2)c1`, the results for the EC50 in [1] and in [4] were greater than 3.67 µM and 0.0059 µM, respectively. The IC50 in series [2] came to 0.03 µM. Besides, in [3], the CC50 at 96 h came out at 3.67 µM. In addition, in series [5], the selectivity ratio came out at 622.

With `Cc1ccnc2c1NC(=O)c1cccnc1N2C1CC1` [NEVIRAPINE], the EC50 in [6] is 0.4 µM; in [7], greater than 4 µM; in series [8], greater than 4 µM; in series [9], 0.058 µM; in series [10] it was greater than 4 µM; in series [11], greater than 4 µM. Besides, the EC50 amounted to 0.024 µM in series [4] and 1.85 µM in series [12]. Moreover, in series [3], the CC50 at 96 h is greater than 4 µM.

Turning to `Cc1cc(-c2cccc(C(F)(F)F)c2)cc(C)c1Nc1ccnc(Nc2ccc(C#N)cc2)n1`, the EC50 in series [1] was greater than 4.03 µM; in [4], 0.0084 µM. Moreover, in [2], the IC50 was 0.058 µM. Moreover, the CC50 at 96 h in series [3] was determined as 4.03 µM. The selectivity ratio in series [5] amounted to 477.

As to `Cc1cc(-c2c(C)cccc2C)cc(C)c1Nc1ccnc(Nc2ccc(C#N)cc2)n1`, the EC50 was greater than 2.59 µM in [1] and 0.0071 µM in series [4]. In addition, in [2], the IC50 came out at 0.037 µM. In [3], the CC50 at 96 h worked out at 2.59 µM. In addition, the selectivity ratio in series [5] stood at 364.

Consider `Cc1cc(-c2ccc(C(F)(F)F)cc2)cc(C)c1Nc1ccnc(Nc2ccc(C#N)cc2)n1`, for which the values for the EC50 in series [1] and in [4] were greater than 4.16 µM and 0.01 µM, respectively. Further, the IC50 in series [2] came to 0.067 µM. In addition, in series [3], the CC50 at 96 h is 4.16 µM. Also, the selectivity ratio in [5] turned out to be 418.

With `Cc1cc(-c2ccccc2Cl)cc(C)c1Nc1ccnc(Nc2ccc(C#N)cc2)n1`, the EC50 in [1] was greater than 3.99 µM; in series [4] it was 0.0026 µM. Moreover, in series [2], the IC50 worked out at 0.02 µM. The CC50 at 96 h in series [3] turned out to be 3.99 µM. Moreover, in [5], the selectivity ratio stood at 1150.

As to `Cc1cn([C@H]2C[C@H](N=[N+]=[N-])[C@@H](CO)O2)c(=O)[nH]c1=O` [ZIDOVUDINE], the concentration for a half-maximal effect (EC50) in series [6] came to 0.0013 µM; in [7] it was 0.001 µM; in series [8], 0.0017 µM; in series [9], 0.0022 µM; in series [10], 0.0016 µM; in [11], 0.0015 µM. The EC50 came out at 0.0021 µM in series [4] and 0.0019 µM in [12]. In addition, the CC50 at 96 h in [3] is greater than 2 µM. Besides, the selectivity ratio in series [5] is greater than 971.
